Consider 2 compounds from patent publication US20130116586A1, “USE OF DRONEDARONE OR A PHARMACEUTICALLY ACCEPTABLE SALT THEREOF FOR THE PREPARATION OF A DRUG FOR THE PREVENTION OF ATRIAL FIBRILLATION” (SANOFI, priority 2011, published 2013).

The subject of data set [1] is patients with permanent atrial fibrillation or flutter. The data set can be described thus: PALLAS study: dronedarone 400 mg bid vs placebo on top of standard therapy. It counts as in vivo, human. The settings on record: for unplanned cardiovascular hospitalizations and mortality, events recorded: 400 mg bid; for relative risk of cardiovascular hospitalizations and deaths vs placebo: Cox model. From the text: The PALLAS trial (Permanent Atrial fibriLLAtion outcome Study) using dronedarone on top of standard therapy was designed to evaluate the efficacy of dronedarone on major cardiovascular events in a patient population with permanent AF.
The primary efficacy objective of PALLAS was the reduction of: • 1) major cardiovascular events (stroke, systemic arterial embolism, myocardial infarction or cardiovascular death), or • 2) unplanned cardiovascular hospitalization or death from any cause.
Patients with permanent AF were at least 65 years of age with a 12-lead ECG recorded no more than 14 days prior to randomization showing AF or atrial flutter, documentation in the form of ECG rhythm strips or medical reports indicating AF or atrial flutter for at least 6 months prior to randomization without evidence of sinus rhythm in the intervening period. In addition, both the patient and physician must have reached a decision to allow AF to continue without further efforts to restore sinus rhythm.
Patients were randomized to dronedarone 400 mg bid or placebo.
• 1. NYHA class IV or recent unstable NYHA class III heart failure, where unstable refers to a requirement for intensification of therapy (e.g., increased diuretic, ACE/ARB, or inotropic dosage due to exacerbated symptoms within one month prior to randomization). • 2. Sustained daytime bradycardia <50 bpm without a permanent pacemaker • 3. QTc interval ≧500 ms, or 530 ms if there is ventricular paced rhythm • 4. Hypersensitivity to the active substance or to any of its excipients • 5. Need for co-administration of strong CYP3A4 inhibitors, such as ketoconazole, itraconazole, voriconazole, telithromycin, clarithromycin, nefazodone and ritonavir leading to increased systemic exposure to dronedarone • 6. Need for co-administration of medicinal products capable of inducing torsades de pointes ventricular tachycardia, such as phenothiazines, cisapride, bepridil, tricyclic antidepressants, terfenadine and certain oral macrolides, or Vaughan Williams class I and III antiarrhythmic agents) • 7. Severe hepatic impairment
Treatment was initiated using tablets containing either the placebo or an amount of dronedarone hydrochloride corresponding to 400 mg of dronedarone at a rate of one tablet twice a day with the morning and evening meals.
The anticipated duration of the treatment was variable according to the time at which each patient was included in the study, and could range between 3 months for the last patient included and 3 years for the first patient included.
The results obtained in this trial were analysed by the Kaplan Meier method for the figures, and the relative risk (RR) was estimated using Cox's proportional-effect regression model.
The relative risk (RR) is the ratio of the rates of occurrence of a hospitalization or of a death among the patients on dronedarone, relative to the patients on placebo.

Data set [2] concerns patients with atrial fibrillation/atrial flutter. The data set can be described thus: ATHENA trial, including post-hoc exploratory analysis of patients with AF on all follow-up ECGs. The settings on record: for patients displaying AF on all ECGs recorded during follow-up: of 2301 patients assigned to dronedarone. In kind it is in vivo, human. As for the experimental part:
• AF/AFL atrial fibrillation or atrial flutter • ATHENA A placebo-controlled, double-blind, parallel arm Trial to assess the efficacy of dronedarone 400 mg bid for the prevention of cardiovascular Hospitalization or death from any cause in patiENts with Atrial fibrillation/atrial flutter • PALLAS Permanent Atrial fibriLLAtion Outcome Study Using Dronedarone on Top of Standard Therapy
For the sake of hypothesis generation, these patients can be considered as having permanent AF. In a post-hoc exploratory analysis of this cohort, the primary study endpoint (time to first CV hospitalization or all-cause death) occurred in 95 patients in the placebo group and 46 in the dronedarone group (HR 0.742, 95% Cl 0.522-1.056; p=0.096). Considering first unplanned CV hospitalizations, 85 patients in the placebo group and 37 on dronedarone reached this secondary study endpoint (HR 0.67, 95% Cl 0.46-0.99; p=0.04). There was a similar trend toward reduction in major cardiovascular events (stroke, ACS, cardiovascular death). These observations from ATHENA supported testing the efficacy of dronedarone for prevention of major cardiovascular events in patients with permanent AF.

In data set [3] the test system is patients with atrial fibrillation. The settings on record: in vivo; cited from earlier work.
The test system of data set [4] is patients with permanent atrial fibrillation. As to conditions: in vivo; cited from earlier work.
In data set [5] the test system is patients with atrial fibrillation/atrial flutter. The settings on record: whole ATHENA trial; cited from earlier work.
Data set [6] has as its system patients hospitalized with symptomatic unstable heart failure and severe left ventricular systolic function. As to conditions: trial terminated early; cited from earlier work.

Counter-ions that a name gives are not always drawn.

As to `CCCCc1oc2ccc(NS(C)(=O)=O)cc2c1C(=O)c1ccc(OCCCN(CCCC)CCCC)cc1` [dronedarone hydrochloride], the “unplanned cardiovascular hospitalizations and mortality, events recorded” value in data set [1] (preliminary results, placebo group 72 events) worked out at 114 events; in data set [1] (results (III.1'), placebo group 67 events), 127 events. Further, the “relative risk of cardiovascular deaths vs placebo” value in data set [1] (preliminary results, 95% CI 0.98-6.53, p=0.0462) is 2.53; in data set [1] (results (III.2'), 95% CI 1.00-4.49, p=0.046), 2.11. Besides, in data set [1] (preliminary results, 95% CI 1.15-2.12, p=0.0039), the “relative risk of cardiovascular hospitalizations vs placebo” value amounted to 1.56. In addition, the “relative risk of cardiovascular hospitalizations for heart failure vs placebo” value was determined as 2.21 in data set [1] (preliminary results, 95% CI 1.22-3.99, p=0.0070) and 1.81 in data set [1] (results (III.4'), 95% CI 1.10-2.99, p=0.02). Further, in data set [1] (preliminary results, 95% CI 1.66-3.74, p<0.0001), the “relative risk of heart failure related episodes vs placebo” value is given as 2.49. The “relative risk of cardiovascular hospitalizations and deaths vs placebo” value amounted to 1.62 in data set [1] (preliminary results, 95% CI 1.20, 2.17, p=0.001) and 1.95 in data set [1] (results (III.1'), p<0.001). The “cardiovascular mortality, events recorded” value in data set [1] (preliminary results, placebo group 6 events) turned out to be 15 events; in data set [1] (results (III.2'), placebo group 10 events), 21 events. Further, the “cardiovascular hospitalizations for heart failure, events recorded” value was 35 events in data set [1] (preliminary results, placebo group 16 events) and 43 events in data set [1] (results (III.4'), placebo group 24 events). For the same compound, the “heart failure, events recorded” value in data set [1] (preliminary results, placebo group 33 events) was found to be 80 events. For the same compound, the “unplanned cardiovascular hospitalizations, events recorded” value in data set [1] (preliminary results, placebo group 68 events) is 104 events. The “relative risk of cardiovascular hospitalizations and death vs placebo” value in data set [1] (preliminary results, subgroup with NYHA class III heart failure, 95% CI 1.02, 2.44, p=0.041) turned out to be 1.58; in data set [1] (preliminary results, subgroup with left ventricular ejection fraction (LVEF)<40%, 95% CI 1.20, 2.30, p=0.002), 1.66; in data set [1] (preliminary results, subgroup with symptomatic heart failure, 95% CI 1.01, 2.09, p=0.043), 1.46. Moreover, in data set [1] (results (III.3'), 95% CI 1.44-2.70, p<0.001), the “relative risk of unplanned hospitalizations for cardiovascular causes vs placebo” value is 1.97. Also, in data set [1] (results (III.3'), placebo group 59 events), the “unplanned hospitalizations for cardiovascular causes, events recorded” value was 113 events. Also, in data set [1] (results (III.9), 95% CI 1.57-2.98, p<0.001), the “relative risk of a heart failure episode or hospitalizations for heart failure vs placebo” value is 2.16. Moreover, in data set [1] (results (III.9), placebo group 55 events), the “heart failure episode or hospitalizations for heart failure, events recorded” value came out at 115 events.

Take `CCCCc1oc2ccc(NS(C)(=O)=O)cc2c1C(=O)c1ccc(OCCCN(CCCC)CCCC)cc1` [dronedarone, 2-n-Butyl-3-[4-(3-di-n-butylaminopropoxy)benzoyl]-5-methylsulphonamidobenzofuran]: the “co-primary outcomes, cardiovascular hospitalizations and heart failure events in the dronedarone group” value in data set [1] (preliminary review of the unblinded data) is listed as “highly significant excess of events”. Moreover, the “patients displaying AF on all ECGs recorded during follow-up” value in data set [2] (placebo 12.7%) amounted to 7.7%; in data set [2] (placebo 296 of 2,327), 178 patients. In addition, in data set [2] (post-hoc cohort with AF on all ECGs, 95% CI 0.46-0.99, p=0.04), the “HR for first unplanned CV hospitalizations vs placebo” value is 0.67. The “HR for primary study endpoint (first CV hospitalization or all-cause death) vs placebo” value in data set [2] (post-hoc cohort with AF on all ECGs, 95% CI 0.522-1.056, p=0.096) turned out to be 0.742. Moreover, the “first unplanned CV hospitalizations, patients reaching endpoint” value in data set [2] (post-hoc cohort with AF on all ECGs, placebo 85) is reported as 37 patients. In addition, the “primary study endpoint (time to first CV hospitalization or all-cause death), patients with event” value in data set [2] (post-hoc cohort with AF on all ECGs, placebo 95) was found to be 46 patients. In data set [3], the rhythm-controlling efficacy result is “has been demonstrated”. The rate control result in data set [4] is listed as “has rate-controlling properties”. Further, the “major clinical outcomes including cardiovascular hospitalizations or cardiovascular mortality, and stroke” value in data set [5] is “reduced major clinical outcomes”. The mortality vs placebo result in data set [6] is “increased mortality”.
